# Measured values: article PMC9545474, “Anticancer Water‐Soluble Organoruthenium Complexes: Synthesis and Preclinical Evaluation” (Chembiochem, 2022)
# Legend:
# [1] = test system: A2780 subcutaneous tumour xenograft; assay: Efficacy in A2780 subcutaneous tumour xenograft model; assay type: in vivo, Female Balb/c immunodeficient nude mice; conditions: 6 at 50 mg/kg, 8 at 15 mg/kg, i.p.; for Maximum % weight loss / Median time to RTV2: days 0–4; for Growth delay: days 0–4, versus untreated
# Protocol: (§1) Compounds: All compounds were provided in powdered form and stored in the −20 °C freezer. They were formulated just before use. […] The drugs were then administered within 10 minutes of initial dilution.
# (§2) Animals: Female Balb/c immunodeficient nude mice aged 6–12 weeks were used (Envigo, Blackthorn, UK). Mice were kept in cages housed in isolation cabinets in an air‐conditioned room with regular alternating cycles of light and darkness. They received Teklad 2018 diet (Envigo, Blackthorn, UK) and water ad libitum. All animal procedures were carried out under a project licence issued by the UK Home Office and UK National Cancer Research Institute Guidelines for the Welfare of Animals were followed throughout.
# (§3) S.c. xenograft tumours: A2780/WT and A2780/cis tumours were excised from a donor animal, placed in sterile physiological saline containing antibiotics and cut into small fragments of approximately 5 mm^3. Under brief general inhalation anaesthesia, fragments were implanted in the flank of each mouse using a trocar. Once the tumours could accurately be measured by callipers, the mice were allocated into groups (control or treated) by restricted randomisation to keep group mean tumour size variation to a minimum, with 3 animals set up per group.
# (§4) Evaluation of efficacy in s.c. xenograft models: The compounds were prepared fresh on the days of treatment as described above and administered i. p. to mice on days 0–4 in a volume of 0.1 mL per 10 g of body weight. […] The negative control group was untreated.
# (§5) The effects of therapy were assessed by frequent monitoring growth of the tumours and body weight. Two‐dimensional calliper measurements of the tumours were taken, and volumes calculated using the formula (a^2×b)/2, where a is the smaller and b the larger diameter of the tumour. Tumour volume was then normalised to the respective volume on day 0, and semi‐log plots of relative tumour volume (RTV) versus time were made. Mann‐Whitney U tests were performed to determine the statistical significance of any differences in growth rate (based on tumour volume doubling time, RTV2) between control and treated groups.
# [2] = test system: A2780cisR subcutaneous tumour xenograft; assay: Efficacy in A2780cisR (A2780/cis) subcutaneous tumour xenograft model; assay type: in vivo, Female Balb/c immunodeficient nude mice; conditions: 6 at 50 mg/kg, 8 at 15 mg/kg, i.p.; for Median time to RTV2 / Maximum % weight loss / Growth delay: A2780/cis xenograft, days 0–4; for Maximum % weight loss: day in brackets; for Growth delay: versus untreated
# Protocol: as §1, §2, §3, §4, §5
# A2780 cells = assay: FITC annexin-V / PI apoptosis assay by flow cytometry; assay type: cell-based, human; conditions: A2780, 24 h, complexes 2×IC50, doxorubicin 0.5 µM
# Excerpt: Annexin V‐FITC and propidium iodide (PI) have been used to distinguish between viable cells (Q1‐LL), early apoptotic cells (Q1‐LR), late apoptotic cells (Q1‐UR), and necrotic cells (Q1‐UL). […] Both complexes 6 and 8 induce apoptosis of A2780 cells and treatment with the complexes results in 99.6 % and 95.4 % of the cells in late apoptosis, respectively.
# Figure 9 Flow cytometry analysis of A2780 cells exposed to complexes 6 or 8 at twice the IC50 concentration compared to a negative control. FITC reads annexin fluorescence and PE reads propidium iodide. Abbreviations: Q1‐UL=non‐viable cells; Q1‐UR=late‐stage apoptotic cells; Q1‐LR=early‐stage apoptotic cells and Q1‐LL=healthy cells.
# FITC annexin‐V apoptosis assay: Flow cytometry analysis of apoptotic populations was carried out using the FITC Annexin V Apoptosis Detection Kit with PI (BioLegend®) according to manufacturer's instructions. Briefly, A2780 cells were seeded in 6‐well plates at a concentration of 1.0×10^6 cells per well and the plates were incubated for 24 h at 37 °C and a 5 % CO2 humidified atmosphere. […] Cells were then harvested using trypsin (without EDTA) and stained with PI/Annexin V‐FITC. After staining in the dark for 15 min at room temperature, cell pellets were analysed in a BD Accuri C6 Plus System flow cytometer and data was analysed using the BD Accuri C6 Plus software. These experiments were carried out in duplicate of triplicates in independent experiments; although only selected dot plots are shown, full numerical data and statistical analysis can be found in the Supporting Information.
# [3] = Combined results, Average of two experiments
molecule,measurement,setting,value
(η^6‐p‐cymene)(TPPTS)Ru(Mnt) [Complex 6],Maximum % weight loss,[1],0%
same,Median time to RTV2,[1],2.0 days
same,Growth delay,[1],0.6 days
same,Median time to RTV2,[2],3.0 days
same,Maximum % weight loss,[2],2%
same,Growth delay,[2],0.2 days
same,Early apoptosis (Q1-LR),A2780 cells; [3],0.1%
same,Late apoptosis (Q1-UR),A2780 cells; [3],99.8%
same,Necrosis (Q1-UL),A2780 cells; [3],0.0%
same,Viable cells (Q1-LL),A2780 cells; [3],0.2%
same,Early apoptosis (Q1-LR),"A2780 cells; Experiment 1, Average",0.1%
same,Late apoptosis (Q1-UR),"A2780 cells; Experiment 1, Average",99.6%
same,Necrosis (Q1-UL),"A2780 cells; Experiment 1, Average",0.0%
same,Viable cells (Q1-LL),"A2780 cells; Experiment 1, Average",0.2%
same,Early apoptosis (Q1-LR),"A2780 cells; Experiment 1, Rep 1",0.1%
same,Late apoptosis (Q1-UR),"A2780 cells; Experiment 1, Rep 1",99.6%
same,Necrosis (Q1-UL),"A2780 cells; Experiment 1, Rep 1",0.0%
same,Viable cells (Q1-LL),"A2780 cells; Experiment 1, Rep 1",0.2%
same,Early apoptosis (Q1-LR),"A2780 cells; Experiment 1, Rep 2",0.1%
same,Late apoptosis (Q1-UR),"A2780 cells; Experiment 1, Rep 2",99.6%
same,Necrosis (Q1-UL),"A2780 cells; Experiment 1, Rep 2",0.0%
same,Viable cells (Q1-LL),"A2780 cells; Experiment 1, Rep 2",0.2%
same,Early apoptosis (Q1-LR),"A2780 cells; Experiment 1, Rep 3",0.2%
same,Late apoptosis (Q1-UR),"A2780 cells; Experiment 1, Rep 3",99.5%
same,Necrosis (Q1-UL),"A2780 cells; Experiment 1, Rep 3",0.0%
same,Viable cells (Q1-LL),"A2780 cells; Experiment 1, Rep 3",0.3%
same,Early apoptosis (Q1-LR),"A2780 cells; Experiment 2, Average",0.0%
same,Late apoptosis (Q1-UR),"A2780 cells; Experiment 2, Average",99.9%
same,Necrosis (Q1-UL),"A2780 cells; Experiment 2, Average",0.0%
same,Viable cells (Q1-LL),"A2780 cells; Experiment 2, Average",0.1%
same,Early apoptosis (Q1-LR),"A2780 cells; Experiment 2, Rep 1",0.0%
same,Late apoptosis (Q1-UR),"A2780 cells; Experiment 2, Rep 1",99.9%
same,Necrosis (Q1-UL),"A2780 cells; Experiment 2, Rep 1",0.0%
same,Viable cells (Q1-LL),"A2780 cells; Experiment 2, Rep 1",0.1%
same,Early apoptosis (Q1-LR),"A2780 cells; Experiment 2, Rep 2",0.0%
same,Late apoptosis (Q1-UR),"A2780 cells; Experiment 2, Rep 2",99.9%
same,Necrosis (Q1-UL),"A2780 cells; Experiment 2, Rep 2",0.0%
same,Viable cells (Q1-LL),"A2780 cells; Experiment 2, Rep 2",0.0%
same,Early apoptosis (Q1-LR),"A2780 cells; Experiment 2, Rep 3",0.0%
same,Late apoptosis (Q1-UR),"A2780 cells; Experiment 2, Rep 3",99.9%
same,Necrosis (Q1-UL),"A2780 cells; Experiment 2, Rep 3",0.0%
same,Viable cells (Q1-LL),"A2780 cells; Experiment 2, Rep 3",0.1%
"Cc1ccc(C(C)C)cc1.N#CC1=C(C#N)[S][Ru-]([P+](c2ccccc2)(c2ccccc2)c2ccccc2)[S]1 [Complex 8, (η^6‐p‐cymene)(PPh3)Ru(Mnt)]",Toxicity in xenograft study,[1],No toxicity was observed
same,Maximum % weight loss,[1],0%
same,Median time to RTV2,[1],1.5 days
same,Growth delay,[1],0.1 days
same,Median time to RTV2,[2],10.0 days
same,Maximum % weight loss,[2],2%
same,Growth delay,[2],7.2 days
same,Toxicity in xenograft study,[2]; A2780cisR xenograft,No toxicity was observed
same,Early apoptosis (Q1-LR),A2780 cells; [3],2.5%
same,Late apoptosis (Q1-UR),A2780 cells; [3],94.4%
same,Necrosis (Q1-UL),A2780 cells; [3],0.5%
same,Viable cells (Q1-LL),A2780 cells; [3],2.6%
same,Early apoptosis (Q1-LR),"A2780 cells; Experiment 1, Average",2.6%
same,Late apoptosis (Q1-UR),"A2780 cells; Experiment 1, Average",94.3%
same,Necrosis (Q1-UL),"A2780 cells; Experiment 1, Average",0.4%
same,Viable cells (Q1-LL),"A2780 cells; Experiment 1, Average",2.7%
same,Early apoptosis (Q1-LR),"A2780 cells; Experiment 1, Rep 1",2.6%
same,Late apoptosis (Q1-UR),"A2780 cells; Experiment 1, Rep 1",95.4%
same,Necrosis (Q1-UL),"A2780 cells; Experiment 1, Rep 1",0.3%
same,Viable cells (Q1-LL),"A2780 cells; Experiment 1, Rep 1",1.7%
same,Early apoptosis (Q1-LR),"A2780 cells; Experiment 1, Rep 2",2.2%
same,Late apoptosis (Q1-UR),"A2780 cells; Experiment 1, Rep 2",94.5%
same,Necrosis (Q1-UL),"A2780 cells; Experiment 1, Rep 2",0.4%
same,Viable cells (Q1-LL),"A2780 cells; Experiment 1, Rep 2",2.8%
same,Early apoptosis (Q1-LR),"A2780 cells; Experiment 1, Rep 3",3.0%
same,Late apoptosis (Q1-UR),"A2780 cells; Experiment 1, Rep 3",93.0%
same,Necrosis (Q1-UL),"A2780 cells; Experiment 1, Rep 3",0.6%
same,Viable cells (Q1-LL),"A2780 cells; Experiment 1, Rep 3",3.5%
same,Early apoptosis (Q1-LR),"A2780 cells; Experiment 2, Average",2.4%
same,Late apoptosis (Q1-UR),"A2780 cells; Experiment 2, Average",94.5%
same,Necrosis (Q1-UL),"A2780 cells; Experiment 2, Average",0.6%
same,Viable cells (Q1-LL),"A2780 cells; Experiment 2, Average",2.5%
same,Early apoptosis (Q1-LR),"A2780 cells; Experiment 2, Rep 1",2.0%
same,Late apoptosis (Q1-UR),"A2780 cells; Experiment 2, Rep 1",95.1%
same,Necrosis (Q1-UL),"A2780 cells; Experiment 2, Rep 1",0.6%
same,Viable cells (Q1-LL),"A2780 cells; Experiment 2, Rep 1",2.3%
same,Early apoptosis (Q1-LR),"A2780 cells; Experiment 2, Rep 2",2.3%
same,Late apoptosis (Q1-UR),"A2780 cells; Experiment 2, Rep 2",94.2%
same,Necrosis (Q1-UL),"A2780 cells; Experiment 2, Rep 2",0.8%
same,Viable cells (Q1-LL),"A2780 cells; Experiment 2, Rep 2",2.7%
same,Early apoptosis (Q1-LR),"A2780 cells; Experiment 2, Rep 3",2.9%
same,Late apoptosis (Q1-UR),"A2780 cells; Experiment 2, Rep 3",94.1%
same,Necrosis (Q1-UL),"A2780 cells; Experiment 2, Rep 3",0.5%
same,Viable cells (Q1-LL),"A2780 cells; Experiment 2, Rep 3",2.5%
